Assay results taken from ChEMBL document CHEMBL2202954, “The effect of PLC-γ2 inhibitors on the growth of human tumour cells” (2012).

How the values were obtained:
Format in all cases: functional
SR = experiment: Cytotoxicity against human SR cells assessed as cellular growth at 10 uM by SRB assay
A549 = experiment: Cytotoxicity against human A549 cells assessed as cellular growth at 10 uM by SRB assay
MDA-MB-435 = experiment: Cytotoxicity against human MDA-MB-435 cells assessed as cellular growth at 10 uM by SRB assay
DU-145 = experiment: Cytotoxicity against human DU145 cells assessed as cellular growth at 10 uM by SRB assay
HL-60(TB) = experiment: Cytotoxicity against human HL-60(TB) cells assessed as cellular growth at 10 uM by SRB assay
IGROV-1 = experiment: Cytotoxicity against human IGROV1 cells assessed as cellular growth at 10 uM by SRB assay
Malme-3M = experiment: Cytotoxicity against human MALME-3M cells assessed as cellular growth at 10 uM by SRB assay
SW-620 = experiment: Cytotoxicity against human SW620 cells assessed as cellular growth at 10 uM by SRB assay
BT-549 = experiment: Cytotoxicity against human BT549 cells assessed as cellular growth at 10 uM by SRB assay
M14 = experiment: Cytotoxicity against human M14 cells assessed as cellular growth at 10 uM by SRB assay
OVCAR-5 = experiment: Cytotoxicity against human OVCAR5 cells assessed as cellular growth at 10 uM by SRB assay
COLO 205 = experiment: Cytotoxicity against human COLO205 cells assessed as cellular growth at 10 uM by SRB assay
NCI-H460 = experiment: Cytotoxicity against human NCI-H460 cells assessed as cellular growth at 10 uM by SRB assay
SF-295 = experiment: Cytotoxicity against human SF295 cells assessed as cellular growth at 10 uM by SRB assay
K562 = experiment: Cytotoxicity against human K562 cells assessed as cellular growth at 10 uM by SRB assay
SN12C = experiment: Cytotoxicity against human SN12C cells assessed as cellular growth at 10 uM by SRB assay
CCRF-CEM = experiment: Cytotoxicity against human CCRF-CEM cells assessed as cellular growth at 10 uM by SRB assay
A498 = experiment: Cytotoxicity against human A498 cells assessed as cellular growth at 10 uM by SRB assay
OVCAR-4 = experiment: Cytotoxicity against human OVCAR4 cells assessed as cellular growth at 10 uM by SRB assay

COc1ccc(Cl)cc1C(=O)Nc1nc2ccc(Cl)cc2s1
Activity (SR): 87.67%
Activity (A549): 76.66%
Activity (MDA-MB-435): 97.59%
Activity (DU-145): 94.89%
Activity (HL-60(TB)): 103.5%
Activity (IGROV-1): 65.9%
Activity (Malme-3M): 83.31%
Activity (SW-620): 100.98%
Activity (BT-549): 97.73%
Activity (M14): 95.14%
Activity (OVCAR-5): 124.2%
Activity (COLO 205): 82.83%
Activity (NCI-H460): 93.65%
Activity (SF-295): 169.8%
Activity (K562): 86.76%
Activity (SN12C): 91.7%
Activity (CCRF-CEM): 86.4%

Nc1c(C(=O)Nc2ccccc2)sc2nc3c(cc12)C(=O)CCC3
Activity (SR): 21.95%
Activity (A549): 19.69%
Activity (MDA-MB-435): -5.95%
Activity (DU-145): 0.62%
Activity (HL-60(TB)): 19.38%
Activity (IGROV-1): 36.43%
Activity (Malme-3M): 76.23%
Activity (SW-620): 27.25%
Activity (BT-549): 65.66%
Activity (M14): 1.11%
Activity (OVCAR-5): 59.92%
Activity (COLO 205): -18.41%
Activity (NCI-H460): 12.88%
Activity (SF-295): -12.42%
Activity (A498): 37.32%
Activity (K562): 17.06%
Activity (SN12C): 59.85%
Activity (CCRF-CEM): 16.76%

Cc1cc(C)c(NC(=O)c2sc3nc4c(cc3c2N)C(=O)CCC4)c(C)c1
Activity (SR): 10.54%
Activity (A549): 23.05%
Activity (MDA-MB-435): -34.35%
Activity (DU-145): 10.04%
Activity (HL-60(TB)): 14.55%
Activity (IGROV-1): 35.36%
Activity (Malme-3M): 42.11%
Activity (SW-620): 15.59%
Activity (BT-549): 56.75%
Activity (M14): 16.41%
Activity (COLO 205): -6.14%
Activity (NCI-H460): 6.43%
Activity (SF-295): -11.34%
Activity (A498): -7.37%
Activity (K562): 19.79%
Activity (CCRF-CEM): 22.12%

Cc1ccccc1NC(=O)c1sc2nc3c(cc2c1N)C(=O)CCC3
Activity (SR): 34.35%
Activity (A549): 37.59%
Activity (MDA-MB-435): -12.89%
Activity (DU-145): 18.31%
Activity (HL-60(TB)): 36.05%
Activity (IGROV-1): 77.05%
Activity (Malme-3M): 66.45%
Activity (OVCAR-4): 67.57%
Activity (SW-620): 25.37%
Activity (BT-549): 55.62%
Activity (M14): 41.54%
Activity (OVCAR-5): 80.78%
Activity (COLO 205): 6.12%
Activity (NCI-H460): 15.33%
Activity (SF-295): 57.18%
Activity (A498): 31.28%
Activity (K562): 22.15%
Activity (SN12C): 64.53%
Activity (CCRF-CEM): 30.28%

CC1(C)CC(=O)c2cc3c(N)c(C(=O)Nc4ccc(Cl)cc4)sc3nc2C1
Activity (SR): 112.84%
Activity (A549): 97.61%
Activity (MDA-MB-435): 108.85%
Activity (DU-145): 103.07%
Activity (HL-60(TB)): 107.32%
Activity (IGROV-1): 110.85%
Activity (Malme-3M): 119.36%
Activity (SW-620): 108.54%
Activity (BT-549): 124.84%
Activity (M14): 107.38%
Activity (COLO 205): 116.82%
Activity (NCI-H460): 108.61%
Activity (SF-295): 100.12%
Activity (A498): 75.63%
Activity (K562): 107.2%
Activity (SN12C): 109.62%
Activity (CCRF-CEM): 97.21%

Nc1c(C(=O)Nc2ccc(Cl)c(Cl)c2)sc2nc(-c3cccs3)ccc12
Activity (SR): 56.67%
Activity (A549): 54.62%
Activity (MDA-MB-435): 83.41%
Activity (DU-145): 91.96%
Activity (HL-60(TB)): 99.11%
Activity (IGROV-1): 122.32%
Activity (Malme-3M): 90.04%
Activity (OVCAR-4): 55.74%
Activity (SW-620): 105.33%
Activity (BT-549): 76.11%
Activity (M14): 87.97%
Activity (OVCAR-5): 94.42%
Activity (COLO 205): 115.1%
Activity (NCI-H460): 103.53%
Activity (SF-295): 106.17%
Activity (K562): 86.57%
Activity (SN12C): 89.08%
Activity (CCRF-CEM): 82.99%

Cc1ccc(S(=O)(=O)NC2=NC(=O)/C(=C\c3ccccc3)S2)cc1
Activity (SR): 95.9%
Activity (A549): 103.33%
Activity (MDA-MB-435): 110.94%
Activity (DU-145): 111.67%
Activity (HL-60(TB)): 92.36%
Activity (IGROV-1): 124.8%
Activity (Malme-3M): 112.01%
Activity (OVCAR-4): 96.34%
Activity (SW-620): 109.53%
Activity (BT-549): 113.45%
Activity (M14): 110.84%
Activity (OVCAR-5): 111.88%
Activity (NCI-H460): 119.27%
Activity (SF-295): 114.32%
Activity (A498): 11.33%
Activity (K562): 94.57%
Activity (SN12C): 99.26%
Activity (CCRF-CEM): 92.01%

O=S(=O)(Oc1ccc(-c2cnc3ccccc3n2)cc1)c1ccccc1
Activity (SR): 85.09%
Activity (A549): 95.36%
Activity (MDA-MB-435): 96.88%
Activity (DU-145): 107.72%
Activity (HL-60(TB)): 94.23%
Activity (IGROV-1): 130.45%
Activity (Malme-3M): 92.27%
Activity (OVCAR-4): 96.73%
Activity (SW-620): 99.76%
Activity (BT-549): 96.82%
Activity (M14): 106.54%
Activity (OVCAR-5): 101.99%
Activity (NCI-H460): 110.82%
Activity (SF-295): 94.02%
Activity (A498): 60.82%
Activity (K562): 81.89%
Activity (SN12C): 95.17%
Activity (CCRF-CEM): 85.64%

Nc1c(C(=O)Nc2cccc(Cl)c2)sc2nc3c(cc12)C(=O)CCC3
Activity (SR): 39.11%
Activity (A549): 28.25%
Activity (MDA-MB-435): -39.08%
Activity (DU-145): 11.61%
Activity (HL-60(TB)): 33.11%
Activity (IGROV-1): 52.39%
Activity (Malme-3M): 49.7%
Activity (OVCAR-4): 60.44%
Activity (SW-620): 31.28%
Activity (BT-549): 66.38%
Activity (M14): 26.93%
Activity (OVCAR-5): 58.33%
Activity (COLO 205): 10.22%
Activity (NCI-H460): 10.27%
Activity (SF-295): -20.21%
Activity (A498): 49.32%
Activity (K562): 22.78%
Activity (SN12C): 54.42%
Activity (CCRF-CEM): 13.46%

O=C(Nc1ccc(S(=O)(=O)Nc2nccs2)cc1)c1cccs1
Activity (SR): 101.57%
Activity (A549): 96.04%
Activity (MDA-MB-435): 110.15%
Activity (DU-145): 114.06%
Activity (HL-60(TB)): 85.93%
Activity (IGROV-1): 120.24%
Activity (Malme-3M): 104.82%
Activity (OVCAR-4): 103.47%
Activity (SW-620): 111.55%
Activity (BT-549): 114.16%
Activity (M14): 110.69%
Activity (OVCAR-5): 112.09%
Activity (COLO 205): 135.23%
Activity (NCI-H460): 123.68%
Activity (SF-295): 140.51%
Activity (A498): 114.15%
Activity (K562): 104.24%
Activity (SN12C): 103.07%
Activity (CCRF-CEM): 89.52%
